Test results from paper PMC7305236, “The atypical chemokine receptor ACKR3/CXCR7 is a broad-spectrum scavenger for opioid peptides” (Nature Communications, 2020).
Like-named read-outs stand apart in the source and are kept apart here. Starred links: 1 amine or outer side, 2 acyl side, 3 side chain; linkers in the order of their positions; H or OH if unused. Non-standard residues stand in square brackets, D forms with d. Residues, ends and D or L forms follow the SMILES beside them. X1 = N[C@@H](Cc1ccccc1)CN(CC(=O)[*:2])[*:1]

Columns and labels:
Parameters in all cases: dose or concentration left out as unconfirmed
[1] = target: ACKR3 (Homo sapiens, UniProt P25106); experiment: cell-based; conditions: read-out: ACKR3 activity, ctrl+ = 100, Figure S2a
[2] = target: T1, CXCR3A (Homo sapiens, UniProt P49682); experiment: Figure S2a opioid peptide screen on chemokine receptors; type: cell-based
T1 construct: expressed in transfected cells; host or cells: U87 cells
T1 sequence (P49682 1-368): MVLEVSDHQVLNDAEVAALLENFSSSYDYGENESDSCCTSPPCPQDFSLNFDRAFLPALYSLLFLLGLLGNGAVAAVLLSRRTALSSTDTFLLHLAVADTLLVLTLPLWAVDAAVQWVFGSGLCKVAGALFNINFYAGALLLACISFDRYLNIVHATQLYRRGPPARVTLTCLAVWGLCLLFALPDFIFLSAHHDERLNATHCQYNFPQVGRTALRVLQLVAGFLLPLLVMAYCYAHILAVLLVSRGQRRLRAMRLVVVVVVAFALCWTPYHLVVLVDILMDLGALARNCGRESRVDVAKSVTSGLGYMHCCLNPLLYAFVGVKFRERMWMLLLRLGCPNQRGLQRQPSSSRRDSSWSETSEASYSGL

[3] = target: T2, CCR9 (Homo sapiens, UniProt P51686); experiment: as above; type: cell-based
T2 construct: expressed in transfected cells
T2 sequence (P51686 1-369): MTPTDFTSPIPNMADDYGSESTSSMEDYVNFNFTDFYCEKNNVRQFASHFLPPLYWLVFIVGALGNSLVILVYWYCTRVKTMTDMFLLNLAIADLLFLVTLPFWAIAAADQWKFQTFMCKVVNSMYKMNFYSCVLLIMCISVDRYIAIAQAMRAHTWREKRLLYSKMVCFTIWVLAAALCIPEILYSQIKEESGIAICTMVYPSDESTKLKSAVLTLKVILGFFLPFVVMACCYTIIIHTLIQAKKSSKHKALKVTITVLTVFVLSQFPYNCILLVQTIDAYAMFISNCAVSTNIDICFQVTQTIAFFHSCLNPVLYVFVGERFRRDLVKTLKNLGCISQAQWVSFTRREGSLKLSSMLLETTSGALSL

[4] = target: T3, ACKR2 (Homo sapiens, UniProt O00590); experiment: as above; type: cell-based
T3 construct: expressed in transfected cells; host or cells: U87 cells (human glioblastoma)
T3 sequence (O00590 1-384): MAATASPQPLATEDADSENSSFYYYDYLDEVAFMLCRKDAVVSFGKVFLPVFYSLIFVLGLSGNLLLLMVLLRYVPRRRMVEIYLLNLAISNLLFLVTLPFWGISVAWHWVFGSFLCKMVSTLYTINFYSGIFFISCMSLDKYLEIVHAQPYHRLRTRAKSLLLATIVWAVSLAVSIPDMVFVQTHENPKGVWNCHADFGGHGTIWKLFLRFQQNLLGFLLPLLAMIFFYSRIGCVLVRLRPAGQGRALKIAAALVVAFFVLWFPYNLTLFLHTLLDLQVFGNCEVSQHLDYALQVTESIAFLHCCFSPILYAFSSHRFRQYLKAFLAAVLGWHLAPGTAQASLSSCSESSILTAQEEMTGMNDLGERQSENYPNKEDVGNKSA

[5] = target: T4, CCR3 (Homo sapiens, UniProt P51677); experiment: as above; conditions: read-out: CCR3 activity, ctrl+ = 100, Figure S2a
T4 sequence (P51677 1-355): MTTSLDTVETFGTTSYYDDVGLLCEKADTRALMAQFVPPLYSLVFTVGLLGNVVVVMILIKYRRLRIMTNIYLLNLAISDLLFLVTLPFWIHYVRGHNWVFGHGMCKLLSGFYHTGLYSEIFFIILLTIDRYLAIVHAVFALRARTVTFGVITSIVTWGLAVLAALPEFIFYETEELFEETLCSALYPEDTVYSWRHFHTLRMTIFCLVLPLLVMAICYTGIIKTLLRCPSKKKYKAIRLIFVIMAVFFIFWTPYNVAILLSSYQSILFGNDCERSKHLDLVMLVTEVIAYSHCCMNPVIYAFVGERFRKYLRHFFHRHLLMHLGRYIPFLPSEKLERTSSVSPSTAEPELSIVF

[6] = target: T5, ACKR4 (Homo sapiens, UniProt Q9NPB9); experiment: as above; conditions: read-out: ACKR4 activity, ctrl+ = 100, Figure S2a
T5 sequence (Q9NPB9 1-350): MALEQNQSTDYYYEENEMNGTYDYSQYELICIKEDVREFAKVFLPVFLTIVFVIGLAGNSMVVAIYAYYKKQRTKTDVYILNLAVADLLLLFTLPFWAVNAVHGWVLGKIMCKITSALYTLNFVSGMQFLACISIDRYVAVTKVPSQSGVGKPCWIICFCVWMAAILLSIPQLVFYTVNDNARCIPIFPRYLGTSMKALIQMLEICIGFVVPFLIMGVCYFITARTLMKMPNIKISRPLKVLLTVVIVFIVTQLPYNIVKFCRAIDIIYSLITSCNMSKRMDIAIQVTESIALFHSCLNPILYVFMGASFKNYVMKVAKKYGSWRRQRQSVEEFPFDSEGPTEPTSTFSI

[7] = target: T6, CXCR1 (Homo sapiens, UniProt P25024); experiment: as above; type: cell-based
T6 construct: expressed in transfected cells
T6 sequence (P25024 1-350): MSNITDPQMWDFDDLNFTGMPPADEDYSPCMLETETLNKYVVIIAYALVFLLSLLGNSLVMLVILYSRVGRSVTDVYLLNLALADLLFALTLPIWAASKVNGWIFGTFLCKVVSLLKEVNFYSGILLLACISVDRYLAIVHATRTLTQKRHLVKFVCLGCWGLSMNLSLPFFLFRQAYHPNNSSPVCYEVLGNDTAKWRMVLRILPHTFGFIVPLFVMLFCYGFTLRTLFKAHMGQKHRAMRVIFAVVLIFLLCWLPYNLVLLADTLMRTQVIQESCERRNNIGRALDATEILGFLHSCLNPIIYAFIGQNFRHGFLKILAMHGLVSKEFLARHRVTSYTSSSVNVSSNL

[8] = replicate 1, read-out: CXCR3A activity, ctrl+ = 100
[9] = replicate 2, read-out: CXCR3A activity, ctrl+ = 100
[10] = replicate 3, read-out: CXCR3A activity, ctrl+ = 100
[11] = replicate 1, read-out: CCR9 activity, ctrl+ = 100
[12] = replicate 2, read-out: CCR9 activity, ctrl+ = 100
[13] = replicate 3, read-out: CCR9 activity, ctrl+ = 100
[14] = replicate 1, read-out: ACKR2 activity, ctrl+ = 100
[15] = replicate 2, read-out: ACKR2 activity, ctrl+ = 100
[16] = replicate 3, read-out: ACKR2 activity, ctrl+ = 100
[17] = replicate 1, read-out: CXCR1 activity, ctrl+ = 100
[18] = replicate 2, read-out: CXCR1 activity, ctrl+ = 100
[19] = replicate 3, read-out: CXCR1 activity, ctrl+ = 100

Sequence of ACKR3 (P25106 whole entry): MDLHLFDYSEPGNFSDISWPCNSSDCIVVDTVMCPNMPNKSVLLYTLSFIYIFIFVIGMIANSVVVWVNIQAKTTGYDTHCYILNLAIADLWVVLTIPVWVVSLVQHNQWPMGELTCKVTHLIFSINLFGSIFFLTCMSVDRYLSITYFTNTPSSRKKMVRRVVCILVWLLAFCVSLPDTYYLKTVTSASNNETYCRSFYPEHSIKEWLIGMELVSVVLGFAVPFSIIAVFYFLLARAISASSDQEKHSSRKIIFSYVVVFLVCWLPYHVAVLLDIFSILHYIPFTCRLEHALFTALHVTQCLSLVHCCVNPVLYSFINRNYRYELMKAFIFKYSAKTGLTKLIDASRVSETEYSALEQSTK

Work on `CC(C)C[C@H](NC(=O)[C@H](Cc1ccccc1)NC(=O)CNC(=O)CNC(=O)[C@@H](N)Cc1ccc(O)cc1)C(=O)N[C@@H](CCCN=C(N)N)C(=O)N[C@@H](CCCN=C(N)N)C(=O)N[C@@H](CCC(N)=O)C(=O)N[C@@H](Cc1ccccc1)C(=O)N[C@@H](CCCCN)C(=O)N[C@H](C(=O)N[C@H](C(=O)N[C@H](C(=O)O)[C@@H](C)O)C(C)C)C(C)C` [Dynorphin B] yielded an activation ([1]; replicate 1) of 87%, an activation ([1]; replicate 2) of 63.5% and an activation ([1]; replicate 3) of 94.7%. The activation [2, 8] was -2.8%, the activation [2, 9] was -4.87% and the activation [2, 10] was -1.97%. For the same compound, the activation [3, 11] was -1.23%, the activation [3, 12] was -1.3% and the activation [3, 13] was 15.7%. It also gave an activation [4, 14] of -36.9%, an activation [4, 15] of -27.9% and an activation [4, 16] of -3.73%. It also gave an activation ([5]; replicate 1) of 22.6%, an activation ([5]; replicate 2) of -7.56% and an activation ([6]; replicate 1) of -5.6%. It also gave an activation ([6]; replicate 2) of -0.628%, an activation ([6]; replicate 3) of 0.166% and an activation [7, 17] of -0.474%. The activation [7, 18] was -0.947% and the activation [7, 19] was 0.71%.

Compound `NC(=O)[C@H](Cc1ccccc1)NC(=O)[C@H](Cc1c[nH]c2ccccc12)NC(=O)[C@@H]1CCCN1C(=O)[C@@H](N)Cc1ccc(O)cc1` [Endomorphin-1] has an activation ([1]; replicate 1) of 5.29%, an activation ([1]; replicate 2) of 17% and an activation [2, 8] of 3.34%. It also gave an activation [2, 9] of -3.63%, an activation [3, 11] of -1.12% and an activation [3, 12] of 1.74%. For the same compound, the activation [4, 14] was -6%, the activation [4, 15] was 11.5% and the activation ([5]; replicate 1) was 18.4%. It also gave an activation ([5]; replicate 2) of 4.97%, an activation ([6]; replicate 1) of 3.4% and an activation ([6]; replicate 2) of 1.77%. For the same compound, the activation [7, 17] was 0.195% and the activation [7, 18] was -0.597%.

`C[C@H](NC(=O)CNC(=O)[C@@H](NC(=O)[C@H](Cc1ccccc1)NC(=O)CNC(=O)CNC[C@@H](N)Cc1ccccc1)[C@@H](C)O)C(=O)N[C@@H](CCCNC(=N)N)C(=O)N[C@@H](CCCCN)C(=O)N[C@@H](CO)C(=O)N[C@@H](C)C(=O)N[C@@H](CCCNC(=N)N)C(=O)N[C@@H](CCCCN)C(N)=O` [FG Nociceptin 1-13] (H-[X1]GFTGARKSARK-NH2) was tested, and the activation ([1]; replicate 1) was 61.5%, the activation ([1]; replicate 2) was 58.4% and the activation ([1]; replicate 3) was 66%. For the same compound, the activation [2, 8] was 2.13%, the activation [2, 9] was -1.45% and the activation [2, 10] was -3.37%. It also gave an activation [3, 11] of -2.13%, an activation [3, 12] of 0.443% and an activation [3, 13] of 0.538%. The activation [4, 14] was -51.1%, the activation [4, 15] was 36.5% and the activation [4, 16] was 2.35%. For the same compound, the activation ([5]; replicate 1) was 13%, the activation ([5]; replicate 2) was 6.22% and the activation ([5]; replicate 3) was 14.1%. For the same compound, the activation ([6]; replicate 2) was -0.784%, the activation ([6]; replicate 3) was 0.45% and the activation [7, 17] was -0.231%. The activation [7, 18] was 1.41% and the activation [7, 19] was 1.07%.

`C[C@H](NC(=O)CNC(=O)[C@@H](NC(=O)[C@H](Cc1ccccc1)NC(=O)CNC(=O)CNC(=O)[C@@H](N)Cc1ccccc1)[C@@H](C)O)C(=O)N[C@@H](CCCNC(=N)N)C(=O)N[C@@H](CCCCN)C(=O)N[C@@H](CO)C(=O)N[C@@H](C)C(=O)N[C@@H](CCCNC(=N)N)C(=O)N[C@@H](CCCCN)C(N)=O` [Nociceptin 1-13] was tested, and the activation ([1]; replicate 1) was 19.7%, the activation ([1]; replicate 2) was 20.3% and the activation ([1]; replicate 3) was 51.3%. The activation [2, 8] was -0.431%, the activation [2, 9] was -4.46% and the activation [2, 10] was -5.38%. For the same compound, the activation [3, 11] was -3.6%, the activation [3, 12] was -1.89% and the activation [3, 13] was 2.5%. For the same compound, the activation [4, 14] was -54.6%, the activation [4, 15] was -2.02% and the activation [4, 16] was 10.5%. For the same compound, the activation ([5]; replicate 1) was 6.49%, the activation ([5]; replicate 2) was 6.25% and the activation ([5]; replicate 3) was 14.8%. It also gave an activation ([6]; replicate 1) of -3.36%, an activation ([6]; replicate 2) of -5.01% and an activation ([6]; replicate 3) of 1.05%. It also gave an activation [7, 17] of 0.237%, an activation [7, 18] of 1.23% and an activation [7, 19] of -0.725%.

Work on `CC(C)C[C@H](NC(=O)[C@H](CCCCN)NC(=O)[C@H](CCCN=C(N)N)NC(=O)[C@H](C)NC(=O)[C@H](CO)NC(=O)[C@H](CCCCN)NC(=O)[C@H](CCCN=C(N)N)NC(=O)[C@H](C)NC(=O)CNC(=O)[C@@H](NC(=O)[C@H](Cc1ccccc1)NC(=O)CNC(=O)CNC(=O)[C@@H](N)Cc1ccccc1)[C@@H](C)O)C(=O)N[C@@H](C)C(=O)N[C@@H](CC(N)=O)C(=O)N[C@@H](CCC(N)=O)C(=O)O` [Nociceptin] yielded an activation ([1]; replicate 2) of 1.08%, an activation [2, 8] of -2.21% and an activation [2, 9] of -5.51%. For the same compound, the activation [3, 11] was 0.361%, the activation [3, 12] was 3.44% and the activation [4, 14] was -19.6%. It also gave an activation [4, 15] of -66.1%, an activation ([5]; replicate 1) of 8.85% and an activation ([5]; replicate 2) of -14.3%. The activation ([6]; replicate 1) was -1%, the activation ([6]; replicate 2) was -5.23% and the activation [7, 17] was -0.193%. The activation [7, 18] was 0.511%.
